Results published in patent publication US10508127B2, “Conjugated bisphosphonates for the diagnosis and therapy of bone diseases” (SCV GmbH, priority 2014, dated 2019).
Marks after values point to notes of the source that are not given here.

Tests used:
[1] = In vivo μPET experiments, pharmacological parameters (2-Compartment Model); details: Wistar rats
bone metastases [2] = assay: PET/CT uptake (SUV max) in a patient with prostate carcinoma and bone metastases; format: in vivo; details: same patient; DOTA^ZOL PET/CT day n, HBED-PSMA^CC PET/CT day n + 2
[3] = Ex vivo biodistribution (organ SUV) in healthy Wistar rats 60 min after tail vein injection; details: for Bone-to-organ ratio Blood / Bone-to-organ ratio Heart / Bone-to-organ ratio Intestine / Bone-to-organ ratio Kidneys / Bone-to-organ ratio Liver / Bone-to-organ ratio Lung / Bone-to-organ ratio Muscle / Bone-to-organ ratio Spleen: Wistar rats after 60 min; for SUV Blood / SUV Femur / SUV Heart / SUV Intestine / SUV Kidneys / SUV Liver / SUV Lung / SUV Muscle / SUV Spleen: Wistar rats, ex vivo, 60 min after injection, SUV (standard deviation) from five animals
Experimental: Under isoflurane anesthesia, 15-18 MBq of the ^68Ga-marked compound or of the ^177Lu-marked compounds, diluted in isotonic saline solution, was applied into the tail vein of healthy Wistar rats (N=5) having a weight between 140 and 220 g. The rats were killed 60 min after injection, organ samples were removed and weighed, and the accumulation of the marked bisphosphonate in the tissue was determined in SUV (standardized uptake value) according to the formula: SUV=(activity per g of tissue)/(injected activity) x body weight.

bone metastases [4] = assay: First therapeutic application / scintigraphy of [177Lu]DOTA^ZOL in a prostate carcinoma patient with disseminated bone metastases; format: in vivo
Experimental: FIG. 5: Distribution of [^177Lu]DOTA^ZOL in a patient with disseminated bone metastases: [^177Lu]DOTA^ZOL scintigraphy on a patient with prostate carcinoma 6 hours after injection. In a first therapeutic applications [sic], within two months, the PSA value (which represents an important marker in monitoring the progress of the prostate carcinoma) could be lowered from 478 ng/mL initially to 88 ng/mL after only one treatment with 5.5 GBq [^177Lu]DOTA^ZOL. ^177Lu-DOTAM^ZOL may be used equivalently.

O=C(O)CN1CCN(CC(=O)O)CCN(CC(=O)NCCc2cn(CC(O)(P(=O)(O)O)P(=O)(O)O)cn2)CCN(CC(=O)O)CC1.[68Ga+3] [[^68Ga]DOTA^ZOL]
Elimination half-life t1/2(α) [1]: 5 min
Elimination half-life t1/2(β) [1]: 2.3 h
SUV max, bone lesion 8th right rear rib (bone metastases [2]): 7.99 SUV max
SUV max, bone lesion C4 vertebral body and hip pedicle (bone metastases [2]): 12.38 SUV max
SUV max, bone lesion L2 vertebral body (bone metastases [2]): 68.92 SUV max
SUV max, bone lesion L3 vertebral body (bone metastases [2]): 62.96 SUV max
SUV max, bone lesion L4 vertebral body (bone metastases [2]): 34.51 SUV max
SUV max, bone lesion L5 vertebral body (bone metastases [2]): 21.94 SUV max
SUV max, bone lesion Left bones, upper ischium, and pubic bone (bone metastases [2]): 62.32 SUV max
SUV max, bone lesion Right acetabulum (bone metastases [2]): 25.39 SUV max
SUV max, bone lesion Right ischium (bone metastases [2]): 32.55 SUV max
SUV max, bone lesion Sacrum (bone metastases [2]): 17.98 SUV max
SUV max, bone lesion T9 vertebral body (bone metastases [2]): 17.08 SUV max
SUV max, bone lesion T11 vertebral body (bone metastases [2]): 32.29 SUV max
SUV max, soft tissue Bladder (bone metastases [2]): 15.53 SUV max
SUV max, soft tissue Left kidney (bone metastases [2]): 4.12 SUV max
SUV max, soft tissue Left parotid gland (bone metastases [2]): 1.46 SUV max
SUV max, soft tissue Liver (bone metastases [2]): 2.85 SUV max
SUV max, soft tissue Right kidney (bone metastases [2]): 9.34 SUV max
SUV max, soft tissue Right parotid gland (bone metastases [2]): 1.22 SUV max
SUV max, soft tissue Spleen (bone metastases [2]): 4.50 SUV max
Bone-to-organ ratio Blood [3]: 11.47
Bone-to-organ ratio Heart [3]: 37.97
Bone-to-organ ratio Intestine [3]: 38.67
Bone-to-organ ratio Kidneys [3]: 10.22
Bone-to-organ ratio Liver [3]: 19.21
Bone-to-organ ratio Lung [3]: 12.06
Bone-to-organ ratio Muscle [3]: 65.96
Bone-to-organ ratio Spleen [3]: 31.71
SUV Blood [3]: 0.47 (0.19)^† SUV
SUV Femur [3]: 5.40 (0.62)^†‡ SUV
SUV Heart [3]: 0.14 (0.04)^†‡ SUV
SUV Intestine [3]: 0.14 (0.08)^ SUV
SUV Kidneys [3]: 0.53 (0.04)^ SUV
SUV Liver [3]: 0.28 (0.03)^‡ SUV
SUV Lung [3]: 0.45 (0.11)^ SUV
SUV Muscle [3]: 0.08 (0.02)^† SUV
SUV Spleen [3]: 0.17 (0.02)^‡ SUV

O=C(O)CN1CCN(CC(=O)O)CCN(CC(=O)NCCC(P(=O)(O)O)P(=O)(O)O)CCN(CC(=O)O)CC1.[68Ga+3] [[^68Ga]BPAPD]
Elimination half-life t1/2(α) [1]: 5 min
Elimination half-life t1/2(β) [1]: 4 h
Bone-to-organ ratio Blood [3]: 3.73
Bone-to-organ ratio Heart [3]: 10.03
Bone-to-organ ratio Intestine [3]: 12.35
Bone-to-organ ratio Kidneys [3]: 5.73
Bone-to-organ ratio Liver [3]: 8.68
Bone-to-organ ratio Lung [3]: 7.47
Bone-to-organ ratio Muscle [3]: 18.88
Bone-to-organ ratio Spleen [3]: 13.96
SUV Blood [3]: 0.86 (0.21) SUV
SUV Femur [3]: 3.21 (0.29) SUV
SUV Heart [3]: 0.32 (0.09) SUV
SUV Intestine [3]: 0.26 (0.05) SUV
SUV Kidneys [3]: 0.56 (0.08) SUV
SUV Liver [3]: 0.37 (0.11) SUV
SUV Lung [3]: 0.43 (0.08) SUV
SUV Muscle [3]: 0.17 (0.02) SUV
SUV Spleen [3]: 0.23 (0.08) SUV

O=C(O)CN1CCN(CC(=O)O)CCN(CC(=O)NCCC(O)(P(=O)(O)O)P(=O)(O)O)CCN(CC(=O)O)CC1.[68Ga+3] [[^68Ga]DOTA^PAM]
Elimination half-life t1/2(α) [1]: 4.5 min
Elimination half-life t1/2(β) [1]: 4.5 h
Bone-to-organ ratio Blood [3]: 7.61
Bone-to-organ ratio Heart [3]: 19.49
Bone-to-organ ratio Intestine [3]: 16.11
Bone-to-organ ratio Kidneys [3]: 9.44
Bone-to-organ ratio Liver [3]: 10.02
Bone-to-organ ratio Lung [3]: 8.61
Bone-to-organ ratio Muscle [3]: 47.96
Bone-to-organ ratio Spleen [3]: 14.51
SUV Blood [3]: 0.60 (0.03) SUV
SUV Femur [3]: 4.53 (0.17) SUV
SUV Heart [3]: 0.23 (0.02) SUV
SUV Intestine [3]: 0.28 (0.12) SUV
SUV Kidneys [3]: 0.48 (0.06) SUV
SUV Liver [3]: 0.43 (0.04) SUV
SUV Lung [3]: 0.53 (0.16) SUV
SUV Muscle [3]: 0.09 (0.02) SUV
SUV Spleen [3]: 0.31 (0.04) SUV

O=C(O)CN1CCN(CC(=O)O)CCN(CC(=O)NCCc2cn(CC(O)(P(=O)(O)O)P(=O)(O)O)cn2)CCN(CC(=O)O)CC1.[177Lu+3] [[^177Lu]DOTA^ZOL]
Selectivity of distribution (bone metastases [4]; first clinical studies, FIG. 5 scintigraphy 6 hours after injection): high selectivity
PSA value after treatment (bone metastases [4]; prostate carcinoma patient, within two months after only one treatment with 5.5 GBq, initially 478 ng/mL): 88 ng/mL
